Experiments:
topoisomerase-II = assay: Test (a): in vitro topoisomerase-II interaction assay, DNA fragmentation of labelled pUC18 plasmid; assay type: biochemical, human; conditions: test compound at 100 µM; for activity in Test (a): DNA fragmentation with topoisomerase-II from HeLa cells
Method: (a) An in vitro assay which determines the ability of a test compound to interact with the enzyme topoisomerase-II, obtained in partially purified form from human HeLa cervical carcinoma cells grown in cell culture. Aliquots of the topoisomerase-II so obtained are added to a mixture of plasmid DNA [0.5 ng of a linearised pUC18 plasmid labelled with [³²P]-ATP], test compound (dissolved in dimethylsulphoxide) and a conventional buffer solution comprising essential salts, bovine serum albumin, ATP, EDTA and 2-mercaptoethanol. The mixture is incubated at 30°C for 10 minutes. Sodium dodecylsulphate and proteinase K are added in turn to give final concentrations of 1% w/v and 2 mg/ml respectively and the mixture is heated to 45°C to effect proteolysis. The resultant mixture is analysed by electrophoresis on a polyacrylamide gel at pH 8.3 and 450 volts for one hour. Thereafter the gel is fixed, dried and autoradiogrammed to determine the extent of DNA fragmentation.

[1] = system: small-cell lung cancer cell line N417A; assay: Test (b): growth inhibition of N417A cells in culture, tetrazolium salt method; assay type: cell-based; conditions: read-out: IC₅₀
Description: (b) Any assay which determines the ability of a test compound to inhibit the growth of the small-cell lung cancer cell line N417A in cell culture. The test is similar to that described by T. Mosmann (J. Immunol. Meths., 1983, 65, 55-63) but using the tetrazolium salt method of J. Carmichael et al. (J. Cancer Res., 1987, 47, 936-942) to assess the reductive capacity of any viable cells.

In the case of `COc1cc(Cn2c3ccccc3c(=O)c3ccc(S(=O)(=O)CCN(C)C)cc32)cc(OC)c1O` [3-(2-dimethylaminoethylsulphonyl)-10-(4-hydroxy-3,5-dimethoxybenzyl)-9,10-dihydroacridin-9-one], the “etoposide concentration giving activity equivalent to the test compound in Test (a)” value (topoisomerase-II) is reported as 100 µM, the “activity in Test (a)” value (topoisomerase-II) is reported as “significant activity” and the IC50 [1] is reported as 800 nM.

`COc1cc(Cn2c3ccccc3c(=O)c3ccc(Cl)cc32)cc(OC)c1O` [3-chloro-10-(4-hydroxy-3,5-dimethoxybenzyl)-9,10-dihydroacridin-9-one] was tested, and the “etoposide concentration giving activity equivalent to the test compound in Test (a)” value (topoisomerase-II) was 25 µM, the “activity in Test (a)” value (topoisomerase-II) was “significant activity” and the IC50 [1] was 400 nM.

For `COc1cc(Cn2c3ccccc3c(=O)c3cccnc32)cc(OC)c1O` [10-(4-hydroxy-3,5-dimethoxybenzyl)-5,10-dihydrobenzo[b][1,8]naphthyridin-5-one], the “etoposide concentration giving activity equivalent to the test compound in Test (a)” value (topoisomerase-II) was 50 µM, the “activity in Test (a)” value (topoisomerase-II) was “significant activity” and the IC50 [1] was 3700 nM.
